Data reported in the supplement of paper PMC8671470.

Experiments:
Assay in all cases: cell viability (% survival relative to DMSO control); higher = less cytotoxic
Conditions in all cases: 72 h
[1] = tested on: myeloid leukemia patient primary cells Pat.10
In short: (§1)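 Mononuclear cells from patients with AML or CML were thawed, purified on Ficoll and placed in RPMI 1640 with 10% FBS at 10,000 cells/well on 384-well plates. The plates came pre-printed with 70 compounds at five tenfold concentrations spanning 1–10,000 nM, in duplicate, and cells were exposed for 72 h. CellTiter-Glo gave viability, scaled between DMSO wells and wells with 10 μM proteasome inhibitor. Where reported, area under the curve was obtained from log-logistic fits with four parameters using the drc and PharmacoGx R packages.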

[2] = tested on: myeloid leukemia patient primary cells Pat.3
In short: as §1

[3] = tested on: myeloid leukemia patient primary cells Pat.13
In short: as §1

[4] = tested on: myeloid leukemia patient primary cells Pat.1
In short: as §1

SMILES | cell viability ([1]; 1 nM) [%] | cell viability ([1]; 10 nM) [%] | cell viability ([1]; 100 nM) [%] | cell viability ([1]; 1000 nM) [%] | cell viability ([1]; 10000 nM) [%] | cell viability ([2]; 1 nM) [%] | cell viability ([2]; 10 nM) [%] | cell viability ([2]; 100 nM) [%] | cell viability ([2]; 1000 nM) [%] | cell viability ([2]; 10000 nM) [%] | cell viability ([3]; 1 nM) [%] | cell viability ([3]; 10 nM) [%] | cell viability ([3]; 100 nM) [%] | cell viability ([3]; 1000 nM) [%] | cell viability ([3]; 10000 nM) [%] | cell viability ([4]; 1 nM) [%] | cell viability ([4]; 10 nM) [%] | cell viability ([4]; 100 nM) [%] | cell viability ([4]; 1000 nM) [%] | cell viability ([4]; 10000 nM) [%]
CCOC(=O)N1c2ccc(C(F)(F)F)cc2[C@@H](N(Cc2cc(C(F)(F)F)cc(C(F)(F)F)c2)C(=O)OC)C[C@H]1CC [Torcetrapib] | 49.2 | 62.1 | 78.5 | 44.5 | 38.2 | 97 | 62.9 | 95.2 | 88.7 | 22.4 | > 100 | 71.5 | 92.1 | 81.1 | 48.2 | 93.1 | 72.9 | 92.6 | 95.4 | 65.3
CC(Cc1ccc(O)c(O)c1)C(C)Cc1ccc(O)c(O)c1 (stereo not given) [Masoprocol] | 56.6 | 47.4 | 89.9 | 42.2 | > 100 | 90.1 | 91.5 | 80.4 | 35.8 | 5.51 | 93.2 | 97.5 | 98.5 | 70.5 | 56.2 | > 100 | 92.3 | 90.5 | 85.6 | 51.7
Nc1ccn([C@@H]2O[C@H](CO)[C@@H](O)[C@@H]2O)c(=O)n1 [Cytarabine] | 89.9 | 45.1 | 67 | 54.1 | 13.9 | > 100 | 39.5 | 46.5 | 11.6 | 5 | 91.9 | 68.8 | 85.2 | 60.1 | 9.9 | 99.3 | 96.1 | 76.9 | 84.9 | 60.7
Clc1ccc(COC(Cn2ccnc2)c2ccc(Cl)cc2Cl)cc1 (stereo not given) [Econazole] | 70.3 | 85.8 | 73.5 | 34.5 | < 0 | 74.2 | 89.5 | 93 | 70.1 | 1.03 | 77.8 | 95 | 70.2 | 75 | 60.6 | 83.3 | 77.2 | 93.6 | > 100 | 52.8
Sc1ncnc2nc[nH]c12 [6-mercaptopurine] | 59 | 63.4 | 70.1 | 72.4 | 56.6 | 94.8 | 97.6 | 44.2 | 35.1 | 16.3 | 79.6 | 88.3 | 84.9 | 84.9 | 93.2 | > 100 | 95.1 | 92.6 | 84.3 | 93.1
C[C@]12O[C@H](C[C@]1(O)CO)n1c3ccccc3c3c4c(c5c6ccccc6n2c5c31)CNC4=O [Lestaurtinib] | 64.5 | 34.5 | 45.6 | 73.9 | 9.05 | 90.1 | 53 | 69 | 16 | 8.21 | 89 | 46.6 | 48.2 | 57.7 | 1.29 | 93.5 | 54.2 | 22.3 | 22.1 | < 0
C[C@H]1O[C@@H](O[C@H]2[C@@H](O)C[C@H](O[C@H]3[C@@H](O)C[C@H](O[C@H]4CC[C@@]5(C)[C@H](CC[C@@H]6[C@@H]5C[C@@H](O)[C@]5(C)[C@@H](C7=CC(=O)OC7)CC[C@]65O)C4)O[C@@H]3C)O[C@@H]2C)C[C@H](O)[C@@H]1O [Digoxin] | 91.9 | 57.7 | 98.8 | 91.5 | > 100 | 94.1 | 81.3 | 11.5 | 2.91 | 1.13 | 95.8 | 99 | 88.5 | 5.75 | 3.42 | 96.2 | 84.5 | 85.3 | 13.2 | 8.18
COc1c(C)c2c(c(O)c1C/C=C(\C)CCC(=O)O)C(=O)OC2 [Mycophenolic acid] | 49.6 | 77.5 | 79.2 | 69.8 | 53.1 | 65.5 | 81.3 | 99.4 | 56.5 | 47.4 | 61 | 90.7 | 73.5 | 68.1 | 63.1 | 78.4 | 96.8 | 85 | 93.9 | 87.3
Cc1noc2c1-c1ccccc1C(c1ccc(Cl)cc1)=N[C@H]2CC(N)=O [CPI-0610] | 68.5 | 91.9 | 29.6 | 27.8 | 39.2 | > 100 | 79.3 | 68.4 | 22.7 | 15.6 | 90.2 | 95.2 | 87.3 | 52.2 | 46.9 | 90.3 | 93.9 | 84.9 | 39.1 | 21.7
CCN(CC)CCN(Cc1ccc(-c2ccc(C(F)(F)F)cc2)cc1)C(=O)Cn1c(SCc2ccc(F)cc2)nc(=O)c2c1CCC2 [Darapladib] | 66.6 | 77.8 | 12.3 | 93.5 | 4.94 | 81.4 | 90.8 | 70.5 | 54.4 | < 0 | 74.1 | 80.5 | 74.2 | 71.2 | < 0 | 79.5 | 83 | 61.6 | 95.4 | < 0
CC12CCC(O)CC1CCC1C2CCC2(C)C(C3=CC(=O)OC3)CCC12O (stereo not given) [Digitoxigenin] | 71.9 | 52.2 | > 100 | 96.8 | > 100 | > 100 | 90 | 16.6 | 0.964 | 1.87 | > 100 | 64.8 | 91.8 | 15 | 4.96 | 95.1 | 74 | 63.2 | 21.5 | 13
